Measurements taken from US20250163072A1, “MACROCYCLIC COMPOUNDS FOR THE TREATMENT OF CANCER” (Hoffmann-La Roche Inc., priority 2021, published 2025).
Like-named read-outs stand apart in the source and are kept apart here.

How the values were obtained:
KRAS G12C-BRAF complex [1] = target: T1, KRAS G12C-BRAF complex (Homo sapiens (Human), UniProt P01116+P62937, G12C); assay: KRAS G12C-BRAF NanoBit assay; format: cell-based; settings: HEK293 cells, SmBit-KRAS G12C and BRAF RBD-LgBit, 3 hours incubation
T1 sequence (P01116-2 other isoform, or with tags, fused parts or gaps G12C): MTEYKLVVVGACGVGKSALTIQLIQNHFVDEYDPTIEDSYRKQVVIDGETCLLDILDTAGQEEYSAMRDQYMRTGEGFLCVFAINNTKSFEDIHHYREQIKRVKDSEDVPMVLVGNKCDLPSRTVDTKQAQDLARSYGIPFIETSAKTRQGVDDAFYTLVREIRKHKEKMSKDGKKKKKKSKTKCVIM
T1 sequence (P62937 whole entry): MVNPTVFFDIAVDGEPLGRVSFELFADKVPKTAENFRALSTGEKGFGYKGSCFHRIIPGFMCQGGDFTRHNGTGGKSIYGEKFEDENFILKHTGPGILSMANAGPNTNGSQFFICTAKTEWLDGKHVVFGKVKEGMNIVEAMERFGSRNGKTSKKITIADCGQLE
Experimental: This assay is to measure the ability of tested compounds in disruption of the KRAS G12C-BRAF complex at the cellular level, we established the NanoBit cellular assay in mammalian HEK293 (ATCC) cells. HEK293 cells were grown and maintained using DMEM medium (Thermo Fisher Scientific) with 10% fetal bovine serum and 1% penicillin/streptomycin. Both KRAS G12C and BRAF RBD were cloned into the NanoBit vectors ([…] vectors system, Promega) with the orientations SmBit-KRAS G12C and BRAF RBD-LgBit, respectively, and co-transfected into HEK293 cells. Cells were then selected with 100 μg/mL Hygromycin B (10687010, Thermo Fisher) and Blasticidin (5 μg/mL) for 4 weeks to get the stable cell pool. On the day of the assay, 75 nL of compound solution was presented in a 384-well assay plate as a 16-point 3-fold dilution starting from a final concentration of 30 μM in DMSO. Then cells were seeded at 10,000 cells/25 μL/well in a 384-well plate. After 3 hours of incubation, 6 μL of volume of Nano-Glo® Live Cell Substrate (Promega) was added into each well. Monitor luminescence using ultra384 model in Envision at 20 minutes. Compounds that facilitate disruption of the KRAS G12C-BRAF RBD complex were identified as those eliciting a decrease of luminescence relative to DMSO control wells.

KRAS G12C-BRAF complex [2] = target: T1, KRAS G12C-BRAF complex; assay: KRAS-BRAF with CYPA (50 nM) interaction assay (TR-FRET), G12C; format: binding; settings: GMPPNP loaded 6His-KRAS, GST-BRAF RBD
Experimental: (§1) In this example, TR-FRET was also used to measure the compound or compound-CYPA dependent disruption of the KRAS G12C-BRAF complex. This protocol was also used to measure disruption of KRAS G12D or KRAS G12V binding to BRAF by a compound of the invention, respectively. In assay buffer containing 25 mM HEPES PH=7.4 (4-(2-hydroxyethyl)-1-piperazineethanesulfonic acid, Thermo, 15630080), 0.002% Tween20, 0.1% BSA, 100 mM NaCl, 5 mM MgCl2, 10 μM GMPPNP (Guanosine 5'-[β,γ-imido]triphosphate trisodium salt hydrate, Sigma, G0635), tagless CYPA, GMPPNP loaded 6His-KRAS proteins, and GST-BRAF^RBD were mixed in a well of a 384-well assay plate at final concentrations of 50 nM, 6.25 nM and 1 nM, respectively. Compound was present in plate wells as a 16-point 3-fold dilution series starting at a final concentration of 10 μM and incubated for 3 hours. A mixture of MAb Anti-6His-XL665 (Cisbio, 61HISXLB) and Mab anti-GST-TB cryptate (Cisbio, 61GSTTLB) was then added at a final concentration of 6.67 nM and 0.21 nM, respectively, and the plate was incubated for an additional 1.5 hours. TR-FRET signal was read on a […] microplate reader (Ex320 nm, Em 665/615 nm). Compounds that facilitate disruption of the KRAS-BRAF complex were identified as those eliciting a decrease in the TR-FRET ratio relative to DMSO control wells.

[3] = target: KRAS G12D binding to BRAF (Homo sapiens (Human), UniProt P01116+P62937, G12D); assay: KRAS-BRAF with CYPA (50 nM) interaction assay (TR-FRET), G12D; settings: GMPPNP loaded 6His-KRAS, GST-BRAF RBD
KRAS G12D binding to BRAF, sequence (P01116-2 other isoform, or with tags, fused parts or gaps G12D): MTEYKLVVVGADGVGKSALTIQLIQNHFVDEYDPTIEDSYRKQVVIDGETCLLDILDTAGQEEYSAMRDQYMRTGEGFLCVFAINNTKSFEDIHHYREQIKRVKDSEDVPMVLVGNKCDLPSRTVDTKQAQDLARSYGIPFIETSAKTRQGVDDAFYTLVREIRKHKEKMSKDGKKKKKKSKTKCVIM
KRAS G12D binding to BRAF, sequence (P62937 whole entry): as the sequence (P62937 whole entry) above
Experimental: as §1

[4] = target: KRAS G12V binding to BRAF (Homo sapiens (Human), UniProt P01116+P62937, G12V); assay: KRAS-BRAF with CYPA (50 nM) interaction assay (TR-FRET), G12V; settings: GMPPNP loaded 6His-KRAS, GST-BRAF RBD
KRAS G12V binding to BRAF, sequence (P01116-2 other isoform, or with tags, fused parts or gaps G12V): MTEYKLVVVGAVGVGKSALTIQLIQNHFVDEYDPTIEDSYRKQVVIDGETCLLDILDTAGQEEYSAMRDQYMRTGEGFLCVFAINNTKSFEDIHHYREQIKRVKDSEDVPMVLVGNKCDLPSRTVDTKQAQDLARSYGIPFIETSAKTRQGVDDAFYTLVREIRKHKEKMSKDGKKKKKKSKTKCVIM
KRAS G12V binding to BRAF, sequence (P62937 whole entry): as the sequence (P62937 whole entry) above
Experimental: as §1

[5] = test system: KRAS G12C in NCI-H358 cells; assay: pERK inhibition assay, NCI-H358; format: cell-based, human; settings: 4 hours incubation
Outline: (§2)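 NCI-H358, AGS and SW620 cells in RPMI-1640/10% FBS were plated overnight, then exposed to compound (0.5% DMSO final) for 4 h. After fixation and permeabilization, phospho-ERK was quantified by in-cell ELISA (HRP secondary, TMB, OD450); IC50 from a 4-parameter sigmoidal fit.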

KRAS G12D in AGS cells = assay: pERK inhibition assay, AGS; format: cell-based, human; settings: 4 hours incubation
Outline: as §2

KRAS G12V in SW620 = assay: pERK inhibition assay, SW620; format: cell-based, human; settings: 4 hours incubation
Outline: as §2

NCI-H358 cells = assay: Cell viability assay, NCI-H358; format: cell-based, human; settings: NCI-H358, 72 hours, Cell Counting Kit-8, read-out: G12C IC50
Outline: (§3)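 Cells were plated at 5,000 (NCI-H358) or 2,000 (AGS, SW620) per well and incubated overnight. They were then treated with compound in 0.5% DMSO for 72 h. Viability was read with CCK-8 as OD450 minus OD650 after 2 h, and IC50 came from a 4-parameter sigmoidal fit.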

AGS cells = assay: Cell viability assay, AGS; format: cell-based, human; settings: 72 hours, Cell Counting Kit-8, read-out: G12D IC50
Outline: as §3

SW620 cells = assay: Cell viability assay, SW620; format: cell-based, human; settings: Cell Counting Kit-8, read-out: G12V IC50
Outline: as §3

[6] = GSH reaction rates (inherent GSH reactivity); format: in vitro ADME
Outline: (§4)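 Compounds at 1 μM were incubated at 37° C with or without 5 mM GSH in 100 mM potassium phosphate pH 7.4 for 0-6 h. Samples were quenched with acetonitrile/N-ethylmaleimide and the remaining compound quantified by LC-MS/MS to derive T1/2.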

GSH = GSH reaction rates (inherent GSH reactivity); format: in vitro ADME; settings: buffer, pH 7.4
Outline: as §4

[7] = Human hepatocytes stability assay; format: in vitro ADME; settings: for CL_hep (Human): 1 μM compound, human hepatocytes 1×10^6 cells/mL
Outline: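 Compound at 1 μM incubated with cryopreserved suspension hepatocytes (1×10^6 cells/mL) in supplemented Williams' E Medium at 37° C, 5% CO2, with shaking. Reactions quenched with methanol at 2, 10, 20, 40, 60 and 120 min; parent depletion followed by LC-MS/MS.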

[8] = Homo sapiens, SW-620, SW620 cells
[9] = Homo sapiens, SW-620, SW620, 72 hours

| conjugation with GSH (in words) [6] | half-life at 1 μM (GSH) [min] | CL_hep (Human) [7] [mL/min/kg] | SMILES | IC50 (KRAS G12C-BRAF complex [1]) [nM] | IC50 (KRAS G12C-BRAF complex [2]) [nM] | IC50 [3] [µM] | IC50 [4] [µM] | IC50 ([5]; Homo sapiens) [nM] | IC50 (KRAS G12D in AGS cells; Homo sapiens) [nM] | IC50 (KRAS G12V in SW620; [8]) [nM] | IC50 (NCI-H358 cells; Homo sapiens) [nM] | IC50 (AGS cells; Homo sapiens) [nM] | IC50 (SW620 cells; [9]) [nM] | IC50 [5] [nM] | IC50 (KRAS G12D in AGS cells) [nM] | IC50 (KRAS G12V in SW620; SW620 cells) [nM] | IC50 (NCI-H358 cells) [nM] | IC50 (AGS cells) [nM] | IC50 (SW620 cells; SW620, 72 hours) [nM] | Clearance Category ([7]; human hepatocytes) |
| --- | --- | --- | --- | --- | --- | --- | --- | --- | --- | --- | --- | --- | --- | --- | --- | --- | --- | --- | --- | --- |
|  |  |  | CCn1c(-c2cccnc2[C@H](C)OC)c2c3cc(ccc31)-c1cc(O)cc(c1)C[C@H](NC(=O)[C@H](C(C)C)N(C)C(=O)[C@H]1CCN(C(=O)C(F)Cl)C1)C(=O)N1CCC[C@H](N1)C(=O)OCC(C)(C)C2 (stereo partly drawn) [Example 2, (3S)-1-[(2R)-2-chloro-2-fluoro-acetyl]-N-[(1S)-1-[[(8S,14S)-22-ethyl-4-hydroxy-(21M)-21-[2-[(1S)-1-methoxyethyl]-3-pyridyl]-18,18-dimethyl-9,15-dioxo-16-oxa-10,22,28-triazapentacyclo[18.5.2.12,6.110,14.023,27]nonacosa-1(26),2,4,6(29),20,23(27),24-heptaen-8-yl]carbamoyl]-2-methyl-propyl]-N-methyl-pyrrolidine-3-carboxamide] | 68 | 6 | 0.298 | 0.025 | 3 | 56 | 37 | 2 | 83 | 156 |  |  |  |  |  |  |  |
|  |  |  | CCn1c(-c2cc(N3CCN(C)CC3)cnc2[C@H](C)OC)c2c3cc(ccc31)-c1csc(n1)C[C@H](NC(=O)[C@H](C(C)C)N1CCCC3(CCN(C(=O)[C@H](F)Cl)C3)C1=O)C(=O)N1CCC[C@H](N1)C(=O)OCC(C)(C)C2 (stereo partly drawn) [Example 18, (2S)-2-[2-[(2R)-2-chloro-2-fluoro-acetyl]-6-oxo-2,7-diazaspiro[4.5]decan-7-yl]-N-[(7S,13S)-21-ethyl-(20M)-20-[2-[(1S)-1-methoxyethyl]-5-(4-methylpiperazin-1-yl)-3-pyridyl]-17,17-dimethyl-8,14-dioxo-15-oxa-4-thia-9,21,27,28-tetrazapentacyclo[17.5.2.12,5.19,13.022,26]octacosa-1(25),2,5(28),19,22(26),23-hexaen-7-yl]-3-methyl-butanamide] | 20 | 68 | > 10 | > 10 | 3 | 26 | 28 | 0.7 | 19 | 26 |  |  |  |  |  |  |  |
|  |  |  | CO[C@@H](C)c1ncc(N2CCN(C)CC2)cc1-c1c2c3cc(ccc3n1CC(F)(F)F)-c1csc(n1)C[C@H](NC(=O)[C@H](C(C)C)N1CC[C@]3(CCN(C(=O)[C@H](F)Cl)C3)C1=O)C(=O)N1CCC[C@H](N1)C(=O)OCC(C)(C)C2 [Example 24, (2S)-2-[(5R)-7-[(2R)-2-chloro-2-fluoro-acetyl]-1-oxo-2,7-diazaspiro[4.4]nonan-2-yl]-N-[(7S,13S)-(20M)-20-[2-[(1S)-1-methoxyethyl]-5-(4-methylpiperazin-1-yl)-3-pyridyl]-17,17-dimethyl-8,14-dioxo-21-(2,2,2-trifluoroethyl)-15-oxa-4-thia-9,21,27,28-tetrazapentacyclo[17.5.2.12,5.19,13.022,26]octacosa-1(25),2,5(28),19,22(26),23-hexaen-7-yl]-3-methyl-butanamide] | 36 | 21 | > 10 | > 10 |  |  |  |  |  |  | 2 | 65 | 42 | < 0.6 | 886 | 489 |  |
| formed conjugation with GSH | 258 | 15.5 | CC(C)[C@@H](C(=O)N[C@H]1Cc2cc(O)cc(c2)-c2ccc3c(C(C)(C)C#N)cn(c3c2)CC(C)(C)COC(=O)[C@@H]2CCCN(N2)C1=O)N1CCCC2(CCN(C(=O)CCl)C2)C1=O (stereo partly shown) [RM351, reference compound] |  |  |  |  | 356 | > 10000 | > 10000 | 1390 | 2100 | 4810 |  |  |  |  |  |  |  |
| formed conjugation with GSH | 300 | 16.4 | CCn1c(-c2cccnc2[C@H](C)OC)c2c3cc(ccc31)-c1cc(O)cc(c1)C[C@H](NC(=O)[C@H](C(C)C)N(C)C(=O)C1CN(C(=O)CCl)C1)C(=O)N1CCC[C@H](N1)C(=O)OCC(C)(C)C2 [RM461, reference compound] |  |  |  |  | 7 | > 10000 | > 10000 | 22 | 2710 | 4040 |  |  |  |  |  |  | high (CL_hep (mL/min/kg)>16.24 is high clearance) |
